In publication PMC11327220 (Bioscience Reports, 2024):
Several values for one entry are separate records, joined by “and”; a condition that tells them apart may be missing. Equal values may be shown once. Read-outs that look alike come from different tables or passages of the source.

What was measured:
SARS-CoV-2 3CLpro [1] = molecular target: T1, SARS-CoV-2 3CLpro (Severe acute respiratory syndrome coronavirus 2, UniProt P0DTD1); assay: biochemical; type: biochemical
MERS 3CLpro = MERS 3CLpro (Middle East respiratory syndrome-related coronavirus, UniProt K9N7C7); assay: biochemical
Sequence of MERS 3CLpro (K9N7C7 3248-3553 limits assumed): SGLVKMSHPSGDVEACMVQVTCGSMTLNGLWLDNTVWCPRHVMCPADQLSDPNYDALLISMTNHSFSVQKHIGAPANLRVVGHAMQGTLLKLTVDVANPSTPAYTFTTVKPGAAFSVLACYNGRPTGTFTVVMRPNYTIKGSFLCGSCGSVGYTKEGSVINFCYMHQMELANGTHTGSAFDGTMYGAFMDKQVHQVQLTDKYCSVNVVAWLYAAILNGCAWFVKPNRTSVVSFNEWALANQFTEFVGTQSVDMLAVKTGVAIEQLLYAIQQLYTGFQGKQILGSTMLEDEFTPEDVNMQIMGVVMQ

SARS-CoV-1 3CLpro = SARS-CoV-1 3CLpro (Severe acute respiratory syndrome coronavirus, UniProt P0C6X7); assay: biochemical
SARS-CoV-2 3CLpro [2] = molecular target: T1, SARS-CoV-2 3CLpro; assay: Inhibition kinetics of luteolin (competitive inhibition fit); type: biochemical
[3] = tested on: SARS-CoV-2 (ancestral strain A2.2); assay: microbe, parasite or virus in culture; type: cell-based; conditions: Severe acute respiratory syndrome coronavirus 2, HEK-293T, read-out: IC50 in the live virus assay
3CLpro = 3CLpro (Severe acute respiratory syndrome coronavirus 2, UniProt P0DTD1); type: binding, SARS-CoV-2
[4] = versus luteolin without micronutrients
[5] = one additive: 100 µM luteolin, 3.5 mM magnesium, 2.3 mM manganese, 0.3 mM zinc or 0.3 mM vitamin C, free enzyme 133 ± 4
[6] = read-out: IC50 of micronutrients against 3CLpro
[7] = additive in the absence of luteolin
[8] = 0.3 mM vitamin C in the presence of 100 µM luteolin
[9] = 2.3 mM manganese, 3.5 mM magnesium or 0.3 mM vitamin C, no luteolin

O=c1c2ccccc2[se]n1-c1ccccc1 [Ebselen, reference compound]
percentage inhibition of SARS-CoV-2 3CLpro (SARS-CoV-2 3CLpro [1]): completely inhibits

O=c1cc(-c2ccc(O)c(O)c2)oc2cc(O)cc(O)c12 [luteolin, 2-(3,4-dihydroxyphenyl)-5,7-dihydroxy-4H-chromen-4-one]
fold decrease of the IC50 of luteolin with the combination of vitamin C and magnesium (SARS-CoV-2 3CLpro [1]): 3 fold | fold decrease of the IC50 of luteolin with the combination of zinc and magnesium (SARS-CoV-2 3CLpro [1]): 2 fold | IC50 (SARS-CoV-2 3CLpro [1]; 2 µM 3CLpro, 60 µM peptide substrate, absence of micronutrients): 78 µM | inhibition at 25 µM (SARS-CoV-2 3CLpro [1]; read-out: percentage inhibition of SARS-CoV-2 3CLpro): 41% | fold decrease of the IC50 of luteolin in the presence of magnesium (SARS-CoV-2 3CLpro [1]; [4]): 1.7 fold and 2 fold | fold decrease of the IC50 of luteolin in the presence of magnesium, zinc, and vitamin C (SARS-CoV-2 3CLpro [1]; [4]): 10 fold | fold increase of the IC50 of luteolin in the presence of calcium (SARS-CoV-2 3CLpro [1]; [4]): 2 fold | fold increase of the IC50 of luteolin in the presence of zinc (SARS-CoV-2 3CLpro [1]; [4]): 2 fold | IC50 (MERS 3CLpro): 388 ± 59 µM | IC50 (SARS-CoV-1 3CLpro): 711 ± 130 µM | Ki (SARS-CoV-2 3CLpro [2]): 93 ± 12 µM | fold increase of Ka over Km of the peptide substrate in the absence of inhibitor (SARS-CoV-2 3CLpro [2]; in the presence of luteolin): ~6 fold | apparent Michaelis constant (Ka) for the peptide substrate in the presence of luteolin (SARS-CoV-2 3CLpro [2]; luteolin 40-400 µM, Km without inhibitor 66 ± 7 µM): 406 ± 48 µM | inhibition pattern (SARS-CoV-2 3CLpro [2]; luteolin versus the peptide substrate): competitive inhibition | IC50 [3]: 90 ± 11 µM | melting point (Tm) of 3CLpro, single transition (3CLpro; 25 μM 3CLpro with 100 µM luteolin or 0.3 mM zinc, apo-3CLpro 46.7 ± 0.1): 46.7 ± 0.1 °C | effect of adding luteolin on the thermograms of 3CLpro in the presence of metal ions (3CLpro; 100 µM luteolin with metal ions): minimal effect | calorimetric enthalpy (ΔHcal) of unfolding of 3CLpro (3CLpro; [5]): 24.1 ± 3.59 kcal/mol

[Ca+2].[Cl-].[Cl-] [CaCl2]
IC50 (SARS-CoV-2 3CLpro [1]; [6]): 1900 ± 200 µM

[Cl-].[Cl-].[Zn+2] [ZnCl2]
IC50 (SARS-CoV-2 3CLpro [1]; [6]): 1100 ± 200 µM | decrease of Tm compared with apo-3CLpro (3CLpro): approximately 6 °C | melting point (Tm) of 3CLpro, single transition (3CLpro): 41 ± 0.4 °C | fold increase of ΔHcal over free 3CLpro (3CLpro; [7]): 4 fold | calorimetric enthalpy (ΔHcal) of unfolding of 3CLpro (3CLpro; [5]): 108 ± 12 kcal/mol

[Cl-].[Cl-].[Mg+2] [MgCl2]
IC50 (SARS-CoV-2 3CLpro [1]; [6]): 24000 ± 1100 µM | Tm of the first transition (Tm1) of 3CLpro (3CLpro): 35 ± 0.3 °C | Tm of the second transition (Tm2) of 3CLpro (3CLpro): 45 ± 0.5 °C | fold increase of ΔHcal over free 3CLpro (3CLpro; [7]): 2 fold | calorimetric enthalpy (ΔHcal) of unfolding of 3CLpro (3CLpro; [5]): 63.1 ± 3.59 kcal/mol

O=C1O[C@H]([C@@H](O)CO)C(O)=C1O [Vitamin C, L-ascorbate]
IC50 (SARS-CoV-2 3CLpro [1]): 800 ± 20 µM | Tm of the first transition (Tm1) of 3CLpro (3CLpro): 34 °C | Tm of the second transition (Tm2) of 3CLpro (3CLpro): 45 ± 0.7 °C | calorimetric enthalpy (ΔHcal) of unfolding of 3CLpro (3CLpro; [8]): 307.8 ± 32.58 kcal/mol | fold increase of ΔHcal over free 3CLpro (3CLpro; [8]): 10 fold | Tm of the late transition (Tm3) of 3CLpro (3CLpro; 0.3 mM vitamin C, no luteolin): 56 ± 0.2 °C | fold increase of ΔHcal over free 3CLpro (3CLpro; [7]): 8 fold | calorimetric enthalpy (ΔHcal) of unfolding of 3CLpro (3CLpro; [5]): 247.1 ± 13.9 kcal/mol

[Cl][Mn][Cl] [MnCl2]
IC50 (SARS-CoV-2 3CLpro [1]; [6]): 2300 ± 200 µM | Tm of the first transition (Tm1) of 3CLpro (3CLpro; [9]): 35 ± 0.3 °C | Tm of the second transition (Tm2) of 3CLpro (3CLpro; [9]): 45 ± 0.5 °C | fold increase of ΔHcal over free 3CLpro (3CLpro; [7]): 3 fold | calorimetric enthalpy (ΔHcal) of unfolding of 3CLpro (3CLpro; [5]): 85.1 ± 10.8 kcal/mol
